Test results reported in patent US20020137929A1, “1 - (3-heterocyclylphenyl) isothiourea, -isourea, -guanidine and -amidine herbicidal agents” (Intellectual Property Department, BASF Aktiengesellschaft, priority 1998, published 2002).

Assays:
SETVI (Foxtail, Green) = assay: Preemergence herbicidal evaluation; type: in vivo, Setaria viridis; conditions: rated 4-5 weeks after treatment
In short: (§1)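 Herbicidal effect scored visually, 0-9, at 4 to 5 weeks against a control; compound applied preemergence by aqueous acetone spray to seeded soil at about 0.0156 to 0.500 kg/ha.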

GALAP (Galium) [1] = assay: Postemergence herbicidal evaluation; type: in vivo, Galium aparine; conditions: postemergence
In short: (§2)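 Herbicidal effect was judged by eye on a 0–9 scale covering stand, vigor, deformity, size and chlorosis, compared with controls, four to five weeks after seedlings about two weeks old were sprayed (40 psi, ~0.0156–0.500 kg/ha).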

[2] = test system: GLXMAW (Soybean, Williams); assay: Postemergence herbicidal evaluation; type: in vivo, Glycine max, (L.) Merr. cv Williams; conditions: postemergence
In short: as §2

CASOB (Sicklepod) = assay: Postemergence herbicidal evaluation; type: in vivo, Cassia obtusifolia; conditions: postemergence
In short: as §2

[3] = test system: ECHORC (Watergrass (Calif.)); assay: Preemergence weed control under flooded paddy conditions; type: in vivo, Echinochloa oryzoides; conditions: rated 3-4 weeks after treatment
In short: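 Visual injury scored 0-9 against control three to four weeks post-treatment, greenhouse-grown. Application: acetone/water (50/50) solutions dosed directly into flood water (1.5-3 cm over silt loam, planted top 0.5 cm), roughly 0.0313 to 0.500 kg/ha active ingredient.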

AMBEL (Ragweed, Common) = assay: Postemergence herbicidal evaluation; type: in vivo, Ambrosia artemisifolia; conditions: postemergence
In short: as §2

GALAP (Galium) [4] = assay: Preemergence herbicidal evaluation; type: in vivo, Galium aparine; conditions: rated 4-5 weeks after treatment
In short: as §1

MOOVA (Monochoria) = assay: Preemergence weed control under flooded paddy conditions; type: in vivo, Monochoria vaginalis; conditions: rated 3-4 weeks after treatment
In short: (§3)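 Flooded-pot preemergence screen with silt loam and seeds in the upper 0.5 cm. Dose about 0.0313 to 0.500 kg/ha, delivered into flood water; visual 0-9 score after 3 to 4 weeks.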

ORYSAT (Rice, Tebonnet) = assay: Preemergence herbicidal evaluation; type: in vivo, Oryza sativa, (L.) Tebonnet; conditions: rated 4-5 weeks after treatment
In short: as §1

[5] = test system: SAGPY (Arrowhead (Pygmaea)); assay: Preemergence weed control under flooded paddy conditions; type: in vivo, Sagittaria pygmaea; conditions: rated 3-4 weeks after treatment
In short: as §3

CYPSE (Flatsedge) = assay: as above; type: in vivo, Cyperus serotinus; conditions: rated 3-4 weeks after treatment
In short: as §3

[6] = test system: TRZAWR (Wheat, Winter, cv Riband); assay: Postemergence herbicidal evaluation; type: in vivo, Triticum aestivum; conditions: postemergence
In short: as §2

## Cn1c(C(F)(F)F)cc(=O)n(-c2cc(N=C3SCC(=O)N3C3CCC3)c(Cl)cc2F)c1=O [Compound 168, 3-{4-Chloro-5-[(3-cyclobutyl-4-oxo-2-thiazolidinylidene)amino]-2-fluorophenyl}-1-methyl-6-(trifluoromethyl)-2,4(1H,3H)-pyrimidinedione]
SETVI (Foxtail, Green); 0.0156 kg/ha
  Preemergence herbicidal rating SETVI: 0.0
SETVI (Foxtail, Green); 0.0313 kg/ha
  Preemergence herbicidal rating SETVI: 0.0
SETVI (Foxtail, Green); 0.0625 kg/ha
  Preemergence herbicidal rating SETVI: 0.0
SETVI (Foxtail, Green); 0.1250 kg/ha
  Preemergence herbicidal rating SETVI: 0.0
SETVI (Foxtail, Green); 0.2500 kg/ha
  Preemergence herbicidal rating SETVI: 5.0
GALAP (Galium) [1]; rate 0.0156 kg/ha
  Herbicidal rating GALAP: 0.0
GALAP (Galium) [1]; rate 0.0313 kg/ha
  Herbicidal rating GALAP: 1.0
GALAP (Galium) [1]; rate 0.0625 kg/ha
  Herbicidal rating GALAP: 3.0
[2]; rate 0.0156 kg/ha
  Herbicidal rating GLXMAW: 5.5
[2]; rate 0.0313 kg/ha
  Herbicidal rating GLXMAW: 6.5
[2]; rate 0.0625 kg/ha
  Herbicidal rating GLXMAW: 7.0
CASOB (Sicklepod); rate 0.0156 kg/ha
  Herbicidal rating CASOB: 0.0
CASOB (Sicklepod); rate 0.0313 kg/ha
  Herbicidal rating CASOB: 0.0
CASOB (Sicklepod); rate 0.0625 kg/ha
  Herbicidal rating CASOB: 2.0
[3]; 0.0313 kg/ha
  herbicidal effect rating, ECHORC: 0.0
[3]; 0.0625 kg/ha
  herbicidal effect rating, ECHORC: 0.0
[3]; 0.1250 kg/ha
  herbicidal effect rating, ECHORC: 0.0
[3]; 0.2500 kg/ha
  herbicidal effect rating, ECHORC: 0.0
AMBEL (Ragweed, Common); rate 0.0156 kg/ha
  Herbicidal rating AMBEL: 3.0
AMBEL (Ragweed, Common); rate 0.0313 kg/ha
  Herbicidal rating AMBEL: 9.0
AMBEL (Ragweed, Common); rate 0.0625 kg/ha
  Herbicidal rating AMBEL: 9.0
GALAP (Galium) [4]; 0.0156 kg/ha
  Preemergence herbicidal rating GALAP: 0.0
GALAP (Galium) [4]; 0.0313 kg/ha
  Preemergence herbicidal rating GALAP: 0.0
GALAP (Galium) [4]; 0.0625 kg/ha
  Preemergence herbicidal rating GALAP: 0.0
GALAP (Galium) [4]; 0.1250 kg/ha
  Preemergence herbicidal rating GALAP: 0.0
GALAP (Galium) [4]; 0.2500 kg/ha
  Preemergence herbicidal rating GALAP: 3.0
MOOVA (Monochoria); 0.0313 kg/ha
  herbicidal effect rating, MOOVA: 6.0
MOOVA (Monochoria); 0.0625 kg/ha
  herbicidal effect rating, MOOVA: 6.0
MOOVA (Monochoria); 0.1250 kg/ha
  herbicidal effect rating, MOOVA: 6.0
MOOVA (Monochoria); 0.2500 kg/ha
  herbicidal effect rating, MOOVA: 7.0
ORYSAT (Rice, Tebonnet); 0.0156 kg/ha
  Preemergence herbicidal rating ORYSAT: 0.0
ORYSAT (Rice, Tebonnet); 0.0313 kg/ha
  Preemergence herbicidal rating ORYSAT: 0.0
ORYSAT (Rice, Tebonnet); 0.0625 kg/ha
  Preemergence herbicidal rating ORYSAT: 0.0
ORYSAT (Rice, Tebonnet); 0.1250 kg/ha
  Preemergence herbicidal rating ORYSAT: 0.0
ORYSAT (Rice, Tebonnet); 0.2500 kg/ha
  Preemergence herbicidal rating ORYSAT: 0.0
[5]; 0.0313 kg/ha
  herbicidal effect rating, SAGPY: 0.0
[5]; 0.0625 kg/ha
  herbicidal effect rating, SAGPY: 0.0
[5]; 0.1250 kg/ha
  herbicidal effect rating, SAGPY: 0.0
[5]; 0.2500 kg/ha
  herbicidal effect rating, SAGPY: 2.0
CYPSE (Flatsedge); 0.0313 kg/ha
  herbicidal effect rating, CYPSE: 0.0
CYPSE (Flatsedge); 0.0625 kg/ha
  herbicidal effect rating, CYPSE: 0.0
CYPSE (Flatsedge); 0.1250 kg/ha
  herbicidal effect rating, CYPSE: 0.0
[6]; rate 0.0156 kg/ha
  Herbicidal rating TRZAWR: 3.5
[6]; rate 0.0313 kg/ha
  Herbicidal rating TRZAWR: 3.5
[6]; rate 0.0625 kg/ha
  Herbicidal rating TRZAWR: 4.0
